Measurements as given in ChEMBL document CHEMBL5723583, “Data for DCP probe BAY-9835” (2024).
Active and inactive are the calls of the source. The calls are words filed in the database; no cut-off is given here.

Experiments:
[1] = target: 5-hydroxytryptamine receptor 2C (Homo sapiens) (UniProt P28335); test: Inhibition of Serotonin (5-Hydroxytryptamine) 5-HT2C at 10.0 µM in the Eurofins-Panlabs selectivity screen; conditions: Compound concentration 10.0 uM
Caspase-3 = Caspase-3 (Homo sapiens, UniProt P42574); test: IC50 of Caspase 3 at 1.0 µM in the Bayer in-house protease panel
[2] = target: B2 bradykinin receptor (Homo sapiens) (UniProt P30411); test: Inhibition of Bradykinin B2 at 10.0 µM in the Eurofins-Panlabs selectivity screen; conditions: Compound concentration 10.0 uM
[3] = target: A disintegrin and metalloproteinase with thrombospondin motifs 12 (Homo sapiens, UniProt P58397); test: Biochemical enzymatic FRET assay (hADAMTS12) ( FRET substrate, HiLyteFluor-488 DELSSMVLELRGLRT-K(QXL520)-E-NH2 (custom synthesis by Anaspec) was used.)
[4] = target: Equilibrative nucleoside transporter 1/2/3/4 (Homo sapiens) (UniProt Q99808+Q7RTT9+Q14542+Q9BZD2); test: Inhibition of Transporter, Adenosine at 10.0 µM in the Eurofins-Panlabs selectivity screen; type: protein assay; conditions: Compound concentration 10.0 uM
[5] = target: Vasopressin V1a receptor (Homo sapiens) (UniProt P37288); test: Inhibition of Vasopressin V1A at 10.0 µM in the Eurofins-Panlabs selectivity screen; conditions: Compound concentration 10.0 uM
[6] = target: Disintegrin and metalloproteinase domain-containing protein 17 (Homo sapiens, UniProt P78536); test: IC50 of hADAM17 at 1.0 µM in the Bayer in-house protease panel
[7] = target: D(1A) dopamine receptor (Homo sapiens) (UniProt P21728); test: Inhibition of Dopamine D1 at 10.0 µM in the Eurofins-Panlabs selectivity screen; conditions: Compound concentration 10.0 uM
[8] = target: 72 kDa type IV collagenase (Homo sapiens, UniProt P08253); test: IC50 of hMMP2 at 1.0 µM in the Bayer in-house protease panel
[9] = target: 5-hydroxytryptamine receptor 2B (Homo sapiens) (UniProt P41595); test: Inhibition of Serotonin (5-Hydroxytryptamine) 5-HT2B at 10.0 µM in the Eurofins-Panlabs selectivity screen; conditions: Compound concentration 10.0 uM
[10] = target: Purinergic P2Y (Rattus norvegicus) (UniProt O35811+Q9EPX4+P49651+Q63371+P41232+O35881+Q6GUG4); test: Inhibition of Purinergic P2Y at 10.0 µM in the Eurofins-Panlabs selectivity screen; type: protein assay; conditions: Compound concentration 10.0 uM
[11] = target: cGMP-specific 3',5'-cyclic phosphodiesterase (Homo sapiens) (UniProt O76074); test: Inhibition of Phosphodiesterase PDE5 at 10.0 µM in the Eurofins-Panlabs selectivity screen; conditions: Compound concentration 10.0 uM
[12] = target: T1, Glutamate NMDA receptor (Rattus norvegicus) (UniProt P35439+Q00959+Q00960+Q00961+Q62645+Q8VHN2+Q9R1M7); test: Inhibition of Glutamate, NMDA, Agonism at 10.0 µM in the Eurofins-Panlabs selectivity screen; type: protein-complex assay; conditions: Compound concentration 10.0 uM
[13] = target: Delta-type opioid receptor (Homo sapiens) (UniProt P41143); test: Inhibition of Opiate delta1 (OP1, DOP) at 10.0 µM in the Eurofins-Panlabs selectivity screen; conditions: Compound concentration 10.0 uM
[14] = target: Gamma-aminobutyric acid type B receptor subunit 1 (Homo sapiens) (UniProt Q9UBS5); test: Inhibition of GABAB, Non-Selective at 10.0 µM in the Eurofins-Panlabs selectivity screen; conditions: Rattus norvegicus; Compound concentration 10.0 uM
[15] = target: Adenosine receptor A2a (Homo sapiens) (UniProt P29274); test: Inhibition of Adenosine A2A at 10.0 µM in the Eurofins-Panlabs selectivity screen; conditions: Compound concentration 10.0 uM
[16] = target: T1, Glutamate NMDA receptor (Rattus norvegicus); test: Inhibition of Glutamate, NMDA, Glycine at 10.0 µM in the Eurofins-Panlabs selectivity screen; type: protein-complex assay; conditions: Compound concentration 10.0 uM
Cathepsin B = Cathepsin B (Homo sapiens, UniProt P07858); test: IC50 of Cathepsin B at 1.0 µM in the Bayer in-house protease panel
[17] = target: Matrix metalloproteinase-14 (Homo sapiens, UniProt P50281); test: IC50 of hMMP14 at 1.0 µM in the Bayer in-house protease panel
[18] = target: Cannabinoid receptor 2 (Homo sapiens) (UniProt P34972); test: Inhibition of Cannabinoid CB2 at 10.0 µM in the Eurofins-Panlabs selectivity screen; conditions: Compound concentration 10.0 uM
[19] = target: Angiotensin-converting enzyme (Homo sapiens) (UniProt P12821); test: Inhibition of Peptidase, Angiotensin Converting Enzyme at 10.0 µM in the Eurofins-Panlabs selectivity screen; conditions: Oryctolagus cuniculus; Compound concentration 10.0 uM
[20] = target: Insulin receptor (Homo sapiens) (UniProt P06213); test: Inhibition of Insulin at 10.0 µM in the Eurofins-Panlabs selectivity screen; conditions: Rattus norvegicus; Compound concentration 10.0 uM
[21] = target: GABA-A receptor; anion channel (Rattus norvegicus) (UniProt O09028+P15431+P18506+P18508+P19969+P20236+P23574+P23576+P28471+P28473+P30191+P62813+P63079+P63138+Q91ZM7+Q9ES14); test: Inhibition of GABAA, Flunitrazepam, Central at 10.0 µM in the Eurofins-Panlabs selectivity screen; type: protein-complex assay; conditions: Compound concentration 10.0 uM
[22] = target: Disintegrin and metalloproteinase domain-containing protein 10 (Homo sapiens, UniProt O14672); test: IC50 of hADAM10 at 1.0 µM in the Bayer in-house protease panel
[23] = target: P2X receptor (Rattus norvegicus) (UniProt P51579+P49653+P51578+Q64663+P47824+P51577+P49654); test: Inhibition of Purinergic P2X at 10.0 µM in the Eurofins-Panlabs selectivity screen; type: protein assay; conditions: Compound concentration 10.0 uM
[24] = target: A disintegrin and metalloproteinase with thrombospondin motifs 4 (Homo sapiens, UniProt O75173); test: IC50 of hADAMTS4 at 1.0 µM in the Bayer in-house protease panel
[25] = target: Calpain-1 catalytic subunit (Homo sapiens, UniProt P07384); test: IC50 of Calpain 1 at 1.0 µM in the Bayer in-house protease panel
[26] = target: D(3) dopamine receptor (Homo sapiens) (UniProt P35462); test: Inhibition of Dopamine D3 at 10.0 µM in the Eurofins-Panlabs selectivity screen; conditions: Compound concentration 10.0 uM
[27] = target: Monoamine oxidase B (MAO-B) (Homo sapiens, UniProt P27338); test: Inhibition of Monoamine Oxidase MAO-B at 10.0 µM in the Eurofins-Panlabs selectivity screen; conditions: compound concentration 10 uM
[28] = target: Phosphodiesterase 3 (Homo sapiens) (UniProt Q14432+Q13370); test: Inhibition of Phosphodiesterase PDE3 at 10.0 µM in the Eurofins-Panlabs selectivity screen; type: protein assay; conditions: Compound concentration 10.0 uM
[29] = target: Thromboxane-A synthase (Homo sapiens) (UniProt P24557); test: Inhibition of Thromboxane Synthase at 10.0 µM in the Eurofins-Panlabs selectivity screen; conditions: Compound concentration 10.0 uM
[30] = target: Muscarinic acetylcholine receptor M4 (Homo sapiens) (UniProt P08173); test: Inhibition of Muscarinic M4 at 10.0 µM in the Eurofins-Panlabs selectivity screen; conditions: Compound concentration 10.0 uM
[31] = target: Glucocorticoid receptor (Homo sapiens) (UniProt P04150); test: Inhibition of Glucocorticoid at 10.0 µM in the Eurofins-Panlabs selectivity screen; conditions: Compound concentration 10.0 uM

Sequence of 5-hydroxytryptamine receptor 2C (Homo sapiens) (P28335 whole entry): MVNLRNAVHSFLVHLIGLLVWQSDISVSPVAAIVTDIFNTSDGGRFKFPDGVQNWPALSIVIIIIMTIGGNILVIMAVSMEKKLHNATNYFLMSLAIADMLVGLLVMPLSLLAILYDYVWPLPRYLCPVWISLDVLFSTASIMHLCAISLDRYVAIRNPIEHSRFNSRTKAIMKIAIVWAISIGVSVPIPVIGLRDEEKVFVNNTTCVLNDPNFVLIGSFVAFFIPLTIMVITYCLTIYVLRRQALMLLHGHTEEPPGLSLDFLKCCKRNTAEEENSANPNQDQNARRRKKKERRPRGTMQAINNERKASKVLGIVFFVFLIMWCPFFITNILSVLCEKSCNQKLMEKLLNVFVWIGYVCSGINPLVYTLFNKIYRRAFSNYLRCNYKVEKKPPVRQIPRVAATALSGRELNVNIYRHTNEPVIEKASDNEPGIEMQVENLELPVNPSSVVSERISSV
Sequence of Thromboxane-A synthase (Homo sapiens) (P24557 whole entry): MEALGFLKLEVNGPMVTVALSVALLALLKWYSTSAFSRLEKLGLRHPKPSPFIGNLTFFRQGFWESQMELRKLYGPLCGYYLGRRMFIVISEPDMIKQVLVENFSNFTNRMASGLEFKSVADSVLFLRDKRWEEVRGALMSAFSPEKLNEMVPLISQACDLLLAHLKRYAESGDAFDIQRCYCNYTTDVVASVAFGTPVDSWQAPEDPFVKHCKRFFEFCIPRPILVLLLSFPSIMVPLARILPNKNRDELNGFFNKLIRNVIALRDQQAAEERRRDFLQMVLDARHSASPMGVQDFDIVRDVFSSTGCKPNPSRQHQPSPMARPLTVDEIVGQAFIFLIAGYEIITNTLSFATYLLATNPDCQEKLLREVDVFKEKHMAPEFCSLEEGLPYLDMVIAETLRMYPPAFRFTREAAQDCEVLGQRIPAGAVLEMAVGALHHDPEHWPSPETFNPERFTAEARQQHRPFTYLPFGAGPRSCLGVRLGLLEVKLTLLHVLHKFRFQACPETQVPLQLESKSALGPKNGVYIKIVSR
Sequence of A disintegrin and metalloproteinase with thrombospondin motifs 4 (O75173 whole entry): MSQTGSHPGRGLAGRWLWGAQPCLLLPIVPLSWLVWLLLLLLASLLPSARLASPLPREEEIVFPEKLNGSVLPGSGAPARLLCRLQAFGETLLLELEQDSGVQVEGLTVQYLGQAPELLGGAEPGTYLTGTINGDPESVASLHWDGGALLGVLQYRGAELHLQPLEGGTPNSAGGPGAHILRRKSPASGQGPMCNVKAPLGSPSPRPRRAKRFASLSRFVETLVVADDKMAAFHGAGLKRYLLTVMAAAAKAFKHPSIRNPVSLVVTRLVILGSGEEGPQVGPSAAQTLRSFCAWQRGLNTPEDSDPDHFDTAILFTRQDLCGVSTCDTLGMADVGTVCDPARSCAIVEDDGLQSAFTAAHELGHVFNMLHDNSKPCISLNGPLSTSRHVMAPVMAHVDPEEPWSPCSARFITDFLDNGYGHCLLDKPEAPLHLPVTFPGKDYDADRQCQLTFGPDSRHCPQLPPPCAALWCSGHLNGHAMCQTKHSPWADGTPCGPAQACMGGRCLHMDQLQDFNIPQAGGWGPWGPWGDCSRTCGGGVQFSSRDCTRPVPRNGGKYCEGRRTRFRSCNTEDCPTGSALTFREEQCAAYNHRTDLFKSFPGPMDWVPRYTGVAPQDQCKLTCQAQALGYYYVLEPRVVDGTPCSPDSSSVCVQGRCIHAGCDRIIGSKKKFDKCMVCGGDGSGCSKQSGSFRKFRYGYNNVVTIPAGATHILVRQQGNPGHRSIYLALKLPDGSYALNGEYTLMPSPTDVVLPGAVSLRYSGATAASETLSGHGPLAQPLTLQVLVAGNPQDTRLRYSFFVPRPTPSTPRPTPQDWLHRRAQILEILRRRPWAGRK
Sequence of A disintegrin and metalloproteinase with thrombospondin motifs 12 (P58397 whole entry): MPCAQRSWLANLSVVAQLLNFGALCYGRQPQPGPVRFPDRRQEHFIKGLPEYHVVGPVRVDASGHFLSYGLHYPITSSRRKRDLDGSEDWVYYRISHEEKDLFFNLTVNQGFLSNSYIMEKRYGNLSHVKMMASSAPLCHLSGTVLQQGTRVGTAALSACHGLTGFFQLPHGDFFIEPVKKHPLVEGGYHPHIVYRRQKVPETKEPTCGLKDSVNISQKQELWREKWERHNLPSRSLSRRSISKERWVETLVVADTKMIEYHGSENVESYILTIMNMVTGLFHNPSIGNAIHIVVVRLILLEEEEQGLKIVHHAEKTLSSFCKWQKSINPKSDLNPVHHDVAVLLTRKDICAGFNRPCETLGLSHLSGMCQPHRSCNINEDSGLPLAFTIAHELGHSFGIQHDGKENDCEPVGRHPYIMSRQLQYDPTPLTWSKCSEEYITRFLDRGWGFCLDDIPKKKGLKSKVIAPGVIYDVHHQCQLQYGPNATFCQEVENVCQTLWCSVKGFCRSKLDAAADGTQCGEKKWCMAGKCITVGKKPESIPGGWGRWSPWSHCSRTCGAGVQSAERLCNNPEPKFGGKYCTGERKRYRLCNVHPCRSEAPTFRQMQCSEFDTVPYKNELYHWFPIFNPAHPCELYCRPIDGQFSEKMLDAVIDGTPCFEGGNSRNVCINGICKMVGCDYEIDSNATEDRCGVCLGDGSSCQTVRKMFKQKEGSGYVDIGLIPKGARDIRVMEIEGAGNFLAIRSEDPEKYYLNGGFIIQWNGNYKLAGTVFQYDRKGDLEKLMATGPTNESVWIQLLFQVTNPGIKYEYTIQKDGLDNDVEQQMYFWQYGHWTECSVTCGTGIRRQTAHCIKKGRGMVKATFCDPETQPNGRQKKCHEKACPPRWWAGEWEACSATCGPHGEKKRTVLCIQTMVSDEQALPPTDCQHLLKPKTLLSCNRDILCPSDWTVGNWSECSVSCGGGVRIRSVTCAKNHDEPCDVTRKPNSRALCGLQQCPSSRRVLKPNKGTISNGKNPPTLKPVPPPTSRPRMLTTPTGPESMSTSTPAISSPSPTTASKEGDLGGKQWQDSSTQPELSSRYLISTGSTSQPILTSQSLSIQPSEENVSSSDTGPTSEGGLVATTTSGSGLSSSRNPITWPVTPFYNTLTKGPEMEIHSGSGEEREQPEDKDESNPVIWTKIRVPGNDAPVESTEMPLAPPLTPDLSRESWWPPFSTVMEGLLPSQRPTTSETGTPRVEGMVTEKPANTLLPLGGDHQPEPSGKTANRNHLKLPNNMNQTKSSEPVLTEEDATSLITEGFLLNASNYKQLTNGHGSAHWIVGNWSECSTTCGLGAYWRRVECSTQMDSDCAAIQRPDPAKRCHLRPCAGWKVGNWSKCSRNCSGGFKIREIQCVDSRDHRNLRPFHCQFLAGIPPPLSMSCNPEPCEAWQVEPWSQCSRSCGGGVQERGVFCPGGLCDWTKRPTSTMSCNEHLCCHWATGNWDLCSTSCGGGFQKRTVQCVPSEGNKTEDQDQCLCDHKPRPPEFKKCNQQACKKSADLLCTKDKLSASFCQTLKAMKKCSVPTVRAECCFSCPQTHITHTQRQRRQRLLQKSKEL
Sequence of 5-hydroxytryptamine receptor 2B (Homo sapiens) (P41595 whole entry): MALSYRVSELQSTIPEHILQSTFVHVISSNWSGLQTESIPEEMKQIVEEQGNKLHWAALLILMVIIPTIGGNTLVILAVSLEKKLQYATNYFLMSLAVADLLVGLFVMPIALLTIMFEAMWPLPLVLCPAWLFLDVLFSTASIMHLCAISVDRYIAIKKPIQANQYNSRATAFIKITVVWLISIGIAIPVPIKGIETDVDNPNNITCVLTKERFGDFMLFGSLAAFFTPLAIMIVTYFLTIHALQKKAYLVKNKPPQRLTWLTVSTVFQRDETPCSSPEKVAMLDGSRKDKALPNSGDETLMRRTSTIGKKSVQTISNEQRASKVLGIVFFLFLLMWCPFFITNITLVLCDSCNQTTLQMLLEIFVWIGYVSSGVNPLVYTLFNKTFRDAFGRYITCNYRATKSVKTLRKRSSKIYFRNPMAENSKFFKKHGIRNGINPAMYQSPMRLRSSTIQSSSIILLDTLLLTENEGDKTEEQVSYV
Sequence of B2 bradykinin receptor (Homo sapiens) (P30411 whole entry): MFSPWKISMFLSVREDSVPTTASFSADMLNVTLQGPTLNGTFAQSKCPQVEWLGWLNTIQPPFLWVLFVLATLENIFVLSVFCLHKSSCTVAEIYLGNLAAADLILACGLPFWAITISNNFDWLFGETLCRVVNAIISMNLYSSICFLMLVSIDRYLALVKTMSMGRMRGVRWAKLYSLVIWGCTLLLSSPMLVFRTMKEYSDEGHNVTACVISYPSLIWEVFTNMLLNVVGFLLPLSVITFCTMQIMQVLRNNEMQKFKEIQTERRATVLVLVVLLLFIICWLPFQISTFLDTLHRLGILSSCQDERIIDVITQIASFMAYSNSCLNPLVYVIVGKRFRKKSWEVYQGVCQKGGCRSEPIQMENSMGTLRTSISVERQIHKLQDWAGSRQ
Sequence of Muscarinic acetylcholine receptor M4 (Homo sapiens) (P08173 whole entry): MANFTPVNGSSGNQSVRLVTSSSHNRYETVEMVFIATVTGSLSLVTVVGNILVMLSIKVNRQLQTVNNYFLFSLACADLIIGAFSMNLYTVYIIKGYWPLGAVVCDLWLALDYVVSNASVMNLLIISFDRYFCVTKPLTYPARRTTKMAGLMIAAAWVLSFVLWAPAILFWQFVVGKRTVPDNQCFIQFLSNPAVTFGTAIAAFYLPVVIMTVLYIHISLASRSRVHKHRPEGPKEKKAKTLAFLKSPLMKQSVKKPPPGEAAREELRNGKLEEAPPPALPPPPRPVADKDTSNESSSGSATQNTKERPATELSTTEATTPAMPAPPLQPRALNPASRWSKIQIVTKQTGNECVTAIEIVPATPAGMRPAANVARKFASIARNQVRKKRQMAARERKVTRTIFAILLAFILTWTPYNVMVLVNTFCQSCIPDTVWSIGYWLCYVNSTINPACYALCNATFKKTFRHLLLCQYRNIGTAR
Sequence of Caspase-3 (P42574 29-175 limits assumed): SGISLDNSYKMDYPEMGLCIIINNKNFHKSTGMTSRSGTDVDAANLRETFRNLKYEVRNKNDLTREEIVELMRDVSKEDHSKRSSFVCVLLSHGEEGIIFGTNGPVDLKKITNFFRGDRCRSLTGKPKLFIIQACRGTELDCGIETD
Sequence of Caspase-3 (P42574 176-277 limits assumed): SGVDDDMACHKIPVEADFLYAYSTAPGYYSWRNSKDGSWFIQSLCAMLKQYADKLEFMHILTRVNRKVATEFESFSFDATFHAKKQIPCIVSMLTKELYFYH

Cn1nccc1[C@]1(CNC(=O)c2ccc(F)c(F)c2-c2ccc(C(F)(F)F)cc2)NC(=O)NC1=O gave an inhibition [1] of -1%, an IC50 (Caspase-3) of over 100 µM and an inhibition [2] of -6%. For the same compound, the IC50 [3] was 0.03 µM (active), the inhibition [4] was 11% and the inhibition [5] was 7%. For the same compound, the IC50 [6] was 5.77 µM, the inhibition [7] was -1% and the IC50 [8] was over 100 µM. The inhibition [9] was -1%, the inhibition [10] was -4% and the inhibition [11] was -5%. It also gave an inhibition [12] of 1%, an inhibition [13] of 18% and an inhibition [14] of 3%. It also gave an inhibition [15] of 3%, an inhibition [16] of -4% and an IC50 (Cathepsin B) of over 100 µM. For the same compound, the IC50 [17] was over 100 µM, the inhibition [18] was -1% and the inhibition [19] was 3%. It also gave an inhibition [20] of -8%, an inhibition [21] of -6% and an IC50 [22] of 32.8 µM. It also gave an inhibition [23] of 0%, an IC50 [24] of 6.73 µM and an IC50 [25] of over 100 µM. For the same compound, the inhibition [26] was 2%, the inhibition at 10 µM [27] was 10% and the inhibition [28] was 11%. It also gave an inhibition [29] of 11%, an inhibition [30] of -6% and an inhibition [31] of 3%.
